Measured values: PMC9505538, “P-Glycoprotein (MDR1/ABCB1) Restricts Brain Accumulation of the Novel EGFR Inhibitor EAI045 and Oral Elacridar Coadministration Enhances Its Brain Accumulation and Oral Exposure” (Pharmaceuticals, 2022)

Conditions: mouse, in vivo
Experimental: We subsequently analyzed the single and combined effects of Abcb1 and Abcg2 deficiencies on EAI045 plasma pharmacokinetics and tissue accumulation using male WT, Abcg2^-/-, Abcb1a/1b^-/-, and Abcb1a/1b;Abcg2^-/- mice. As we wanted to assess tissue concentrations while plasma concentrations were still relatively high; we terminated this experiment at 30 min.
Mice (Mus musculus) were bred in the Netherlands Cancer Institute and housed and handled according to institutional guidelines complying with Dutch and EU legislation. Animals used were WT, Abcb1a/1b^-/- [39], Abcg2^-/- [40], Abcb1a/1b;Abcg2^-/- [41], Cyp3a^-/- [42], and Oatp1a/1b^-/- [43] mice of a >99% FVB/N strain background. Homozygous CYP3A4 humanized transgenic mice (Cyp3aXAV) were generated by cross-breeding of transgenic mice with stable human CYP3A4 expression in the liver or intestine, respectively, in a Cyp3a^-/- background. Proper functionality of the knockout and transgenic strains was monitored by regular testing with a variety of drug substrates. All the mice used were between 10 and 15 weeks of age. Animals were kept in a temperature-controlled environment with a 12 h light/12 h dark cycle and received a standard diet (Transbreed, SDS Diets, Technilab-BMI, The Netherlands) and acidified water ad libitum. Depending on the type of experiment, 5 or 6 mice were tested in each experimental group. All experimental animal protocols, including power calculations, were ethically assessed and designed under the nationally approved DEC/CCD project AVD301002016595 (approval date, 10 August 2016) and evaluated and approved by the institutional animal care and use committee (IACUC) of the Netherlands Cancer Institute.
EAI045 was dissolved in dimethyl sulfoxide (DMSO) at a concentration of […], and then diluted with a mixture of polysorbate 80/ethanol (1:1, v/v), and further diluted with 5% (w/v) glucose in water to yield a concentration of 2 mg/mL. Final concentrations for DMSO, polysorbate 80, ethanol, and glucose in the dosing solution were 5%, 2.5%, 2.5%, and 4.5% (v/v/v/w), respectively. Elacridar hydrochloride was dissolved in DMSO at a concentration of 53 mg/mL, then diluted with a mixture of polysorbate 80, ethanol, and water [20:13:67, (v/v/v)] to yield a concentration of 5 mg/mL elacridar. The final oral dose of elacridar was 50 mg/kg body weight. All dosing solutions were prepared freshly on the day of experiment.
To minimize variation in absorption, mice were fasted for about 3 h before EAI045 was administered by gavage into the stomach (n = 5–6), using a blunt-ended needle. EAI045 was administered orally at dose of 20 mg/kg. Elacridar was administered orally at a dose of 50 mg/kg, 3 h prior to oral EAI045 administration. For the 24- or 4-h experiments, tail vein blood samplings were performed at 5 min, 30 min, 1, 2, 4, and 8 h, or 5 min, 15 min, 30 min, 1, and 2 h time points after oral administration of EAI045, respectively, using microvettes containing heparin. For the 30 min experiments, blood samplings were performed at 5, 10, and 20 min from the tail vein. At the last time point (24 h, 4 h, or 30 min), mice were anesthetized with isoflurane and blood was collected by cardiac puncture. Then, mice were sacrificed by cervical dislocation and brain, liver, spleen, kidneys, lung, small intestine with content (SIWC), and testis were rapidly removed and weighed. Tissues were homogenized on ice in appropriate volumes of 2% (w/v) BSA. Blood samples were centrifuged at 9000× g for 6 min at 4 °C immediately after collection. All samples were stored at −30 °C until analysis.

O=C(Nc1nccs1)C(c1cc(F)ccc1O)N1Cc2ccccc2C1=O (stereo not shown) [EAI045]
Kp.SIWC% (SIWC%-to-plasma ratio), fold decrease: 3.6 fold
SIWC%, fold decrease: 2.1 fold
brain-to-plasma ratio, fold increase: 5.2 fold
plasma AUC0–30min, fold increase: 2.1 fold
